Experimental data published in ChEMBL document CHEMBL3044542 (J Agric Food Chem, 2011).

Experiments:
Assay type in all cases: functional
Nephotettix cincticeps [1] = test: Insecticidal activity against Nephotettix cincticeps (green rice leafhopper) assessed as lethality at 100 to 1000 ppm
Laodelphax striatellus [2] = test: Insecticidal activity against Laodelphax striatella (small brown planthopper) assessed as lethality at 100 to 1000 ppm
Nephotettix cincticeps [3] = test: Insecticidal activity against Nephotettix cincticeps (green rice leafhopper) assessed as lethality at >1000 ppm
Laodelphax striatellus [4] = test: Insecticidal activity against Laodelphax striatella (small brown planthopper) assessed as lethality at 10 to 100 ppm
Nephotettix cincticeps [5] = test: Insecticidal activity against Nephotettix cincticeps (green rice leafhopper) assessed as lethality at 10 to 100 ppm
Nephotettix cincticeps [6] = test: Insecticidal activity against Nephotettix cincticeps (green rice leafhopper) assessed as lethality at 1 to 10 ppm
Laodelphax striatellus [7] = test: Insecticidal activity against Laodelphax striatella (small brown planthopper) assessed as lethality at 1 to 10 ppm
Laodelphax striatellus [8] = test: Insecticidal activity against Laodelphax striatella (small brown planthopper) assessed as lethality at >1000 ppm
Laodelphax striatellus [9] = test: Insecticidal activity against Laodelphax striatella (small brown planthopper) assessed as lethality at 0.1 to 1 ppm
Nephotettix cincticeps [10] = test: Insecticidal activity against Nephotettix cincticeps (green rice leafhopper) assessed as lethality at 0.1 to 1 ppm

## CN1COCN(CC2CCOC2)/C1=N/[N+](=O)[O-] (stereo not given)
Nephotettix cincticeps [1]
  Activity: 70%
Laodelphax striatellus [2]
  Activity: 70%

## N/C(=N\[N+](=O)[O-])NCC1CCOC1 (stereo not given)
Nephotettix cincticeps [1]
  Activity: 70%

## CC/C(=C\[N+](=O)[O-])N(C)CC1CCOC1 (stereo not given)
Nephotettix cincticeps [3]
  Activity: 70%

## O=C(OCCCN1CCN/C1=C\[N+](=O)[O-])c1ccccc1
Nephotettix cincticeps [1]
  Activity: 70%
Laodelphax striatellus [2]
  Activity: 70%

## N#C/N=C1\SCCCN1CC1CCOC1 (stereo not given)
Laodelphax striatellus [4]
  Activity: 70%
Nephotettix cincticeps [5]
  Activity: 70%

## CN/C(=N\[N+](=O)[O-])NCC1COC(C)C1 (mixture of isomers)
Laodelphax striatellus [4]
  Activity: 70%
Nephotettix cincticeps [6]
  Activity: 70%

## CC(=O)OCCCN1CCN/C1=C\[N+](=O)[O-]
Nephotettix cincticeps [1]
  Activity: 70%
Laodelphax striatellus [2]
  Activity: 70%

## O=[N+]([O-])/C=C1\NCCN1CCO
Laodelphax striatellus [2]
  Activity: 70%
Nephotettix cincticeps [3]
  Activity: 70%

## O=[N+]([O-])/N=C1\NCCN1CCC1CCCCO1 (stereo not given)
Nephotettix cincticeps [1]
  Activity: 70%
Laodelphax striatellus [2]
  Activity: 70%

## CN/C(=N\[N+](=O)[O-])N(C)CC1CCOC1 (stereo not given)
Laodelphax striatellus [7]
  Activity: 70%
Nephotettix cincticeps [6]
  Activity: 70%

## O=[N+]([O-])/N=C1\NCCN1CCC1CCCO1 (stereo not given)
Nephotettix cincticeps [1]
  Activity: 70%
Laodelphax striatellus [2]
  Activity: 70%

## O=[N+]([O-])/N=C1\NCCN1Cc1ccoc1
Laodelphax striatellus [4]
  Activity: 70%
Nephotettix cincticeps [5]
  Activity: 70%

## O=[N+]([O-])/N=C1\NCCN1CC1CCOC1 (stereo not given)
Laodelphax striatellus [4]
  Activity: 70%
Nephotettix cincticeps [6]
  Activity: 70%

## CCC1COCC1CN/C(=N/[N+](=O)[O-])NC (mixture of isomers)
Nephotettix cincticeps [3]
  Activity: 70%
Laodelphax striatellus [8]
  Activity: 70%

## O=[N+]([O-])/N=C1\NCCN1Cc1ccc(Cl)nc1 [IMIDACLOPRID]
Laodelphax striatellus [9]
  Activity: 70%
Nephotettix cincticeps [10]
  Activity: 70%

## CN/C(=C\[N+](=O)[O-])NCC1CCOC1 (stereo not given)
Laodelphax striatellus [9]
  Activity: 70%
Nephotettix cincticeps [10]
  Activity: 70%

## CN/C(=C\[N+](=O)[O-])CCC1CCOC1 (stereo not given)
Nephotettix cincticeps [3]
  Activity: 70%

## CN/C(=N\[N+](=O)[O-])NCC1CCOC1C (mixture of isomers)
Nephotettix cincticeps [3]
  Activity: 70%
Laodelphax striatellus [8]
  Activity: 70%

## CC(=O)N(C)/C(=N\[N+](=O)[O-])N(CC1CCOC1)C(C)=O (stereo not given)
Laodelphax striatellus [9]
  Activity: 70%
Nephotettix cincticeps [10]
  Activity: 70%

## CN/C(=N\[N+](=O)[O-])NCC1CC2CCC1O2 (mixture of isomers)
Nephotettix cincticeps [3]
  Activity: 70%
Laodelphax striatellus [8]
  Activity: 70%

## CN/C(=N/CC1CCOC1)N[N+](=O)[O-] (stereo not given) [DINOTEFURAN]
Laodelphax striatellus [9]
  Activity: 70%
Nephotettix cincticeps [10]
  Activity: 70%

## CC(=O)OCCN1CCN/C1=C\[N+](=O)[O-]
Laodelphax striatellus [2]
  Activity: 70%
Nephotettix cincticeps [3]
  Activity: 70%

## CN(C(=O)c1ccccc1)/C(=N\[N+](=O)[O-])N(CC1CCOC1)C(=O)c1ccccc1 (stereo not given)
Nephotettix cincticeps [10]
  Activity: 70%
Laodelphax striatellus [7]
  Activity: 70%

## CN/C(=N\[N+](=O)[O-])NCC1COCC1C (mixture of isomers)
Laodelphax striatellus [4]
  Activity: 70%
Nephotettix cincticeps [6]
  Activity: 70%

## COCCCN1CCN/C1=C\[N+](=O)[O-]
Laodelphax striatellus [2]
  Activity: 70%
Nephotettix cincticeps [5]
  Activity: 70%

## O=C(OCCN1CCN/C1=C\[N+](=O)[O-])c1ccccc1
Laodelphax striatellus [2]
  Activity: 70%
Nephotettix cincticeps [3]
  Activity: 70%

## CCN(CC1CCOC1)/C(=C/[N+](=O)[O-])NC (stereo not given)
Laodelphax striatellus [4]
  Activity: 70%
Nephotettix cincticeps [6]
  Activity: 70%

## O=[N+]([O-])/C=C1\NCCN1CCCO
Nephotettix cincticeps [1]
  Activity: 70%
Laodelphax striatellus [2]
  Activity: 70%

## CCN/C(=N\[N+](=O)[O-])NCC1CCOC1 (stereo not given)
Laodelphax striatellus [2]
  Activity: 70%
Nephotettix cincticeps [5]
  Activity: 70%

## COCCN1CCN/C1=C\[N+](=O)[O-]
Laodelphax striatellus [2]
  Activity: 70%
Nephotettix cincticeps [5]
  Activity: 70%

## C/C(=N\C#N)N(C)CC1CCOC1 (stereo not given)
Nephotettix cincticeps [1]
  Activity: 70%
Laodelphax striatellus [2]
  Activity: 70%

## CN/C(=N\[N+](=O)[O-])NCC1(C)CCOC1 (stereo not given)
Nephotettix cincticeps [3]
  Activity: 70%
Laodelphax striatellus [8]
  Activity: 70%

## CN(C)/C(=N\[N+](=O)[O-])N(C)CC1CCOC1 (stereo not given)
Laodelphax striatellus [4]
  Activity: 70%
Nephotettix cincticeps [5]
  Activity: 70%

## CN/C(=N\[N+](=O)[O-])NCC1CCCOC1 (stereo not given)
Laodelphax striatellus [2]
  Activity: 70%
Nephotettix cincticeps [5]
  Activity: 70%
